In brackets after ≈: the same amount, converted by molar mass. Where two headings read alike, the source gives them in different places.
Key:
LpxC = LpxC (Klebsiella pneumoniae subsp. pneumoniae, UniProt A6T4N9); experiment: Inhibition assay against Klebsiella pneumonae LpxC (LC-MS/MS); assay type: biochemical; conditions: LpxC 0.2 nM Kpn, 22° C., 60 minutes
Protocol: LpxC inhibition assays were performed using liquid chromatography with tandem mass spectrometry. Assays were performed, in duplicate, in opaque, 96-well microplates in a total assay volume of 50 μL. The incubation mixture contained: LpxC (0.2 nM Kpn), 0.8 μM UDP-3-O—[(R)-3-hydroxymyristoyl]-N-acetyl-glucosamine, 40 mM Bis-Tris/HCI buffer (pH 5.9), 5 mM sodium phosphate buffer (NaH2PO4/Na2HPO4, pH 7.0), 1 mM DTT, 0.1% (w/v) fatty-acid free BSA, 10% DMSO (v/v, with or without compound). The reactions were incubated at 22° C. for 60 minutes (with mild shaking), then terminated by the addition of 25 μL 0.25 N HCl. Samples were analyzed using a LC-MS system to measure native LpxC substrate and reaction product. IC50 analysis was done using GeneData Screener and a four parameter variable slope normalized to controls. Test compounds were prepared as 8-point dose-response curves (factor dilution 2) in triplicate, starting at 1 μM final concentration. Each assay plate included 6 wells used for the Z′ factor calculation, 3 as a positive control for the assay and 3 as a negative control. The robustness was calculated as the median Z′ factor for 5 plates.

E. coli BW25113 = experiment: Bacterial susceptibility testing (MIC, broth microdilution); assay type: cell-based; conditions: Escherichia coli, no FBS, 35° C., 18-24 h
Protocol: (§1) Minimal inhibitory concentrations (MIC) were determined by the broth microdilution method in accordance with the Clinical and Laboratory Standards Institute (CLSI) guidelines. In brief, organism suspensions were adjusted to a 0.5 McFarland standard to yield a final inoculum between 3×10^5 and 7×10^5 colony-forming units (CFU)/mL. Drug dilutions and inocula were made in sterile, cation adjusted Mueller-Hinton Broth (Beckton Dickinson). An inoculum volume of 100 μL was added to wells containing 100 μL of broth with 2-fold serial dilutions of drug. All inoculated microdilution trays were incubated in ambient air at 35° C. for 18-24 h. […] Performance of the assay was monitored by the use of laboratory quality-control strains and levofloxacin, a compound with a defined MIC spectrum, in accordance with CLSI guidelines.

E. coli delta tolC = experiment: as above; assay type: cell-based; conditions: Escherichia coli, 24 h, read-out: MIC E. coli delta tolC
Protocol: as §1

[1] = tested on: P. aeruginosa 210 delta mexAB-OprM; experiment: as above; assay type: cell-based; conditions: Pseudomonas aeruginosa, read-out: MIC P. aeruginosa 210 delta mexAB-OprM
Protocol: as §1

E. coli ATCC 25922 = experiment: as above; assay type: cell-based; conditions: Escherichia coli
Protocol: as §1

E. coli imp mutant = experiment: as above; assay type: cell-based; conditions: Escherichia coli, read-out: MIC E. coli imp mutant
Protocol: as §1

P. aeruginosa 209 = experiment: as above; assay type: cell-based; conditions: Pseudomonas aeruginosa, 209; broth microdilution, 35° C., 18-24 h; read-out: MIC P. aeruginosa 209
Protocol: as §1

S. aureus ATCC 29213 = experiment: as above; assay type: cell-based; conditions: Staphylococcus aureus
Protocol: as §1

[2] = ATCC25922, no FBS, broth microdilution, 35° C., 18-24 h, read-out: MIC E. coli ATCC 25922-no FBS
[3] = ATCC29213, broth microdilution, 35° C., 18-24 h, read-out: MIC S. aureus ATCC 29213

LpxC, sequence (A6T4N9 whole entry): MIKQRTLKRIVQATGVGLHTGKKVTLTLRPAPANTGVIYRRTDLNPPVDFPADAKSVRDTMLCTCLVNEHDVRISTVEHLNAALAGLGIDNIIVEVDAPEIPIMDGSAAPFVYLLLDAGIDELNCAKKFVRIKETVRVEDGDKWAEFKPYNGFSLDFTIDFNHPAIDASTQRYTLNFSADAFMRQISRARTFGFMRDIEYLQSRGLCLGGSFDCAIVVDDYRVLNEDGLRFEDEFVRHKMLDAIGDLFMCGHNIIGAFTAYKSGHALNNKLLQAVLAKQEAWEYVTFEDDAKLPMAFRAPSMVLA

SMILES | IC50 (LpxC) [nM] | MIC (E. coli BW25113) [µg/mL] | MIC (E. coli delta tolC) [µg/mL] | MIC [1] [µg/mL] | MIC (E. coli ATCC 25922; [2]) [µg/mL] | MIC (E. coli imp mutant) [µg/mL] | MIC (P. aeruginosa 209) [µg/mL] | MIC (S. aureus ATCC 29213; [3]) [µg/mL] | MIC (E. coli ATCC 25922; ATCC25922, read-out: MIC E. coli ATCC 25922-no FBS) [µg/mL] | MIC (S. aureus ATCC 29213; ATCC29213, read-out: MIC S. aureus ATCC 29213) [µg/mL]
CN1CCN(C(=O)c2ccc(C#CC#Cc3ccc(NCc4occc(=O)c4O)cc3)cc2)CC1 [Compound 40] | 10 to 100 | 1 to 8 (≈ 2.14 to 17.1 µM) | < 1 | 8 to 32 (≈ 17.1 to 68.4 µM) | 1 to 8 (≈ 2.14 to 17.1 µM) | < 1 | > 32 | > 32 | – | –
O=C(c1ccc(C#CC#Cc2ccc(NCc3occc(=O)c3O)cc2)cc1)N1CC(O)C1 [Compound 39] | 10 to 100 | 1 to 8 (≈ 2.27 to 18.2 µM) | < 1 | 8 to 32 (≈ 18.2 to 72.7 µM) | 1 to 8 (≈ 2.27 to 18.2 µM) | 1 to 8 (≈ 2.27 to 18.2 µM) | > 32 | > 32 | – | –
CNC(=O)c1ccc(C#CC#Cc2ccc(NCc3occc(=O)c3O)cc2)cc1 [Compound 35] | > 100 | 1 to 8 (≈ 2.51 to 20.1 µM) | < 1 | > 32 | 1 to 8 (≈ 2.51 to 20.1 µM) | 1 to 8 (≈ 2.51 to 20.1 µM) | > 32 | > 32 | – | –
O=c1ccoc(CNc2ccc(C#CC#Cc3ccccc3)cc2)c1O [Compound 28] | > 100 | 1 to 8 (≈ 2.93 to 23.4 µM) | 1 to 8 (≈ 2.93 to 23.4 µM) | > 32 | 1 to 8 (≈ 2.93 to 23.4 µM) | 1 to 8 (≈ 2.93 to 23.4 µM) | > 32 | > 32 | – | –
O=c1ccoc(CNc2ccc(C#CC#Cc3ccc(CN4CCOCC4)cc3)cc2)c1O [Compound 47] | 10 to 100 | 1 to 8 (≈ 2.27 to 18.2 µM) | 1 to 8 (≈ 2.27 to 18.2 µM) | > 32 | 8 to 32 (≈ 18.2 to 72.6 µM) | 1 to 8 (≈ 2.27 to 18.2 µM) | > 32 | > 32 | – | –
O=C(O)c1ccc(C#CC#Cc2ccc(NCc3occc(=O)c3O)cc2)cc1 [Compound 38] | > 100 | < 1 | < 1 | 8 to 32 (≈ 20.8 to 83 µM) | 1 to 8 (≈ 2.59 to 20.8 µM) | < 1 | > 32 | > 32 | – | –
CNC(=O)c1ccc(C#CC#Cc2ccc(NCc3oc(CS(C)(=O)=O)cc(=O)c3O)cc2)cc1 [Compound 4, 4-((4-(((3-hydroxy-6-((methylsulfonyl)methyl)-4-oxo-4H-pyran-2-yl)methyl)amino)phenyl)buta-1,3-diyn-1-yl)-N-methylbenzamide] | > 100 | – | < 1 | – | – | 8 to 32 (≈ 16.3 to 65.2 µM) | – | – | 1 to 8 (≈ 2.04 to 16.3 µM) | > 32
O=C(c1ccc(C#CC#Cc2ccc(NCc3occc(=O)c3O)cc2)cc1)N1CCOCC1 [Compound 32] | 10 to 100 | 1 to 8 (≈ 2.2 to 17.6 µM) | < 1 | > 32 | 1 to 8 (≈ 2.2 to 17.6 µM) | 1 to 8 (≈ 2.2 to 17.6 µM) | > 32 | > 32 | – | –
CS(=O)(=O)Cc1cc(=O)c(O)c(CNc2ccc(C#Cc3ccccc3)cc2)o1 [Compound 2, 2-((4-(2-phenylethynyl)phenylamino)methyl)-3-hydroxy-6-((methylsulfonyl)methyl)-4H-pyran-4-one] | – | > 32 | 8 to 32 (≈ 19.5 to 78.2 µM) | > 32 | > 32 | > 32 | > 32 | > 32 | – | –

Source: patent publication US10611747B2, “Pyrone based compounds for treating bacterial infections” (FORGE THERAPEUTICS, INC., priority 2015, dated 2020)
